# From patent US12473289B2, “Heterocyclic compounds as delta-5 desaturase inhibitors and methods of use” (Amgen Inc., priority 2019, dated 2025)
# Biological target: Delta-5-Desaturase (D5D) (Homo sapiens (Human), UniProt O60427)
# Experiment: In vitro measurement of Delta-5-Desaturase inhibitory activity using DGLA-CoA and Arachidonyl-CoA mass spectrometric assays
# Type: biochemical
# Conditions: membrane preparations of D5D-overexpressing HEK293 6E cells; averaged over at least two independent runs
# How it was run: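 DGLA-CoA and arachidonyl-CoA were read by RapidFire SPE triple-quad MS (negative mode, MRM) after a 1 h ambient-temperature reaction quenched with acetonitrile. Enzyme was D5D-overexpressing HEK293 6E membranes at 10 μg/mL final; substrate solution held 0.01 mM DGLA plus NADH, ATP and CoA. Inhibition was referenced to DMSO and no-enzyme wells; 4PL IC50.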
# Delta-5-Desaturase (D5D), sequence (O60427 whole entry, species assumed): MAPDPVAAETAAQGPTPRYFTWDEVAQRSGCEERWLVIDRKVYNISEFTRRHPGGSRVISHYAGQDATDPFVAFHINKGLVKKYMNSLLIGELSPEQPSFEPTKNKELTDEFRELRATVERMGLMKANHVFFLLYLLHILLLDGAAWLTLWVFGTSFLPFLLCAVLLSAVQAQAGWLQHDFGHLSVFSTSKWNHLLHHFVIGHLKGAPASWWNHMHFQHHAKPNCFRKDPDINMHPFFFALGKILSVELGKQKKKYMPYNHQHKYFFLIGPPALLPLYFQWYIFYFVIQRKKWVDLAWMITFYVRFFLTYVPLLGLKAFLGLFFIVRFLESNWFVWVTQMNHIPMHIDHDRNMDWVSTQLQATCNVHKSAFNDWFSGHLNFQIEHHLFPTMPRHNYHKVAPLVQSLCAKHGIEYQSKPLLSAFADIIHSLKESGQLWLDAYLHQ
row,Structure (SMILES),IC50 [nM]
1,"N#Cc1ccn2c(=O)c(-c3cnn(CC(F)(F)C(F)(F)F)c3)c(CF)nc2c1 [Example 1-86, 2-(fluoromethyl)-4-oxo-3-(1-(2,2,3,3,3-pentafluoropropyl)-1H-pyrazol-4-yl)-4H-pyrido[1,2-a]pyrimidine-8-carbonitrile]",134
2,"CC1(c2ccn3c(=O)c(-c4ccc(OCC(F)(F)F)cc4)c(C(F)(F)F)nc3c2)CCO1 (stereo not drawn) [Example 27, 8-(2-Methyl-2-oxetanyl)-3-(4-(2,2,2-trifluoroethoxy)phenyl)-2-(trifluoromethyl)-4H-pyrido[1,2-a]pyrimidin-4-one]",553
3,"COc1cc2nc(C(F)(F)F)c(-c3cnn(CC(F)(F)C(F)(F)F)c3)c(=O)n2cc1Cl [Example 1-45, 7-chloro-8-methoxy-3-[1-(2,2,3,3,3-pentafluoropropyl)-1H-pyrazol-4-yl]-2-(trifluoromethyl)-4H-pyrido[1,2-a]pyrimidin-4-one]",86.1
4,"Cc1cnn2c(=O)c(-c3cnn(CCC(F)(F)F)c3)c(C(F)(F)F)nc2c1 [Example 39-44, 8-methyl-2-(trifluoromethyl)-3-[1-(3,3,3-trifluoropropyl)-1H-pyrazol-4-yl]-4H-pyrimido[1,2-b)pyridazin-4-one]",241
5,"CC[S@+]([O-])c1ccn2c(=O)c(-c3ccc(OCC(F)(F)F)cc3)c(C(F)(F)F)nc2c1 [Example 15-9, 8-((S)-ethylsulfinyl)-3-(4-(2,2,2-trifluoroethoxy)phenyl)-2-(trifluoromethyl)-4H-pyrido[1,2-a]pyrimidin-4-one]",191
6,"[2H]C([2H])([2H])Oc1ccn2c(=O)c(-c3ccc(OCCF)cc3)c(C(F)(F)F)nc2n1 [Example 1-55, 3-(4-(2-fluoroethoxy)phenyl)-8-(methyloxy-d3)-2-(trifluoromethyl)-4H-pyrimido[1,2-a]pyrimidin-4-one]",112
7,"Cc1cnn2c(=O)c(-c3cnc(OCC(F)(F)F)nc3)c(C(F)(F)F)nc2c1 [Example 39-48, 8-methyl-3-[2-(2,2,2-trifluoroethoxy)pyrimidin-5-yl]-2-(trifluoromethyl)-4H-pyrimido[1,2-b]pyridazin-4-one]",518
8,"O=c1c(-c2cnn(CC(F)(F)C(F)(F)F)c2)c(C(F)(F)F)nc2cc(CF)ccn12 [Example 13-2, 8-(fluoromethyl)-3-(1-(2,2,3,3,3-pentafluoropropyl)-1H-pyrazol-4-yl)-2-(trifluoromethyl)-4H-pyrido[1,2-a]pyrimidin-4-one]",20.5
9,"C[S+]([O-])c1ccn2c(=O)c(-c3cnn(CC(F)(F)C(F)(F)F)c3)c(C(F)(F)F)nc2c1 (stereo not drawn) [Example 15-4, 8-(methylsulfinyl)-3-(1-(2,2,3,3,3-pentafluoropropyl)-1H-pyrazol-4-yl)-2-(trifluoromethyl)-4H-pyrido[1,2-a]pyrimidin-4-one]",712
10,"Cn1c(=O)ccn2c(=O)c(-c3cnn(CC(F)(F)C(F)(F)F)c3)c(C(F)(F)F)nc12 [Example 67, 1-Methyl-7-[1-(2,2,3,3,3-pentafluoropropyl)-1H-pyrazol-4-yl]-8-(trifluoromethyl)-1H,2H,6H-[1,3]diazino[1,2-a]pyrimidine-2,6-dione]",32.5
11,"O=c1c(-c2ccc(OCC(F)(F)F)cc2)c(C(F)(F)F)nc2cc(OC(F)F)ccn12 [Example 1-66, 8-(difluoromethoxy)-3-(4-(2,2,2-trifluoroethoxy)phenyl)-2-(trifluoromethyl)-4H-pyrido[1,2-a]pyrimidin-4-one]",79.1
12,"O=c1c(-c2cnn(-c3ccc(F)cc3)c2)c(C(F)(F)F)nc2ccccn12 [Example 1-46, 3-(1-(4-fluorophenyl)-1H-pyrazol-4-yl)-2-(trifluoromethyl)-4H-pyrido[1,2-a]pyrimidin-4-one]",36.4
13,"O=c1c(-c2ccc(OCC(F)(F)F)cn2)c(C(F)(F)F)nc2ccccn12 [Example 7-2, 3-(5-(2,2,2-trifluoroethoxy)-2-pyridinyl)-2-(trifluoromethyl)-4H-pyrido[1,2-a]pyrimidin-4-one]",5230
14,"O=c1c(-c2ccc(OCC(F)(F)F)cc2)c(C(F)(F)F)nc2cc(C(F)(F)F)ccn12 [Example 4-1, 3-(4-(2,2,2-Trifluoroethoxy)phenyl)-2,8-bis(trifluoromethyl)-4H-pyrido[1,2-a]pyrimidin-4-one]",5220
15,"O=c1ccn2c(=O)c(-c3ccc(OCCF)cc3)c(C(F)(F)F)nc2[nH]1 [Example 1-56, 7-(4-(2-fluoroethoxy)phenyl)-8-(trifluoromethyl)-2H-pyrimido[1,2-a]pyrimidine-2,6(1H)-dione]",9280
16,"C[C@@H](O)c1ccn2c(=O)c(-c3ccc(OCC(F)(F)F)cc3)c(C(F)(F)F)nc2c1 [Example 30-2, 8-((1R)-1-hydroxyethyl)-3-(4-(2,2,2-trifluoroethoxy)phenyl)-2-(trifluoromethyl)-4H-pyrido[1,2-a]pyrimidin-4-one]",111
17,"O=c1ccn2c(=O)c(-c3cnn(CC(F)(F)C(F)(F)F)c3)c(C(F)(F)F)nc2n1CF [Example 68, 1-(Fluoromethyl)-7-[1-(2,2,3,3,3-pentafluoropropyl)-1H-pyrazol-4-yl]-8-(trifluoromethyl)-1H,2H,6H-[1,3]diazino[1,2-a]pyrimidine-2,6-dione]",80.7

row,Structure (SMILES),IC50 [nM]
1,"O=c1c(-c2cnn(CC(F)(F)C(F)(F)F)c2)c(C(F)(F)F)nc2ccccn12 [Example 39-5, 3-[1-(2,2,3,3,3-pentafluoropropyl)-1H-pyrazol-4-yl]-2-(trifluoromethyl)-4H-pyrido[1,2-a]pyrimidin-4-one]",8.9
2,"O=c1c(-c2ccc(OCC(F)(F)F)cc2)c(C(F)(F)F)nc2cc(-c3ncco3)ccn12 [Example 29, 8-(1,3-Oxazol-2-yl)-3-(4-(2,2,2-trifluoroethoxy)phenyl)-2-(trifluoromethyl)-4H-pyrido[1,2-a]pyrimidin-4-one]",97.1
3,"O=c1c(-c2cnc(OCC(F)(F)F)nc2)c(C(F)(F)F)nc2ccc(Cl)cn12 [Example 39-18, 7-chloro-3-[2-(2,2,2-trifluoroethoxy)pyrimidin-5-yl]-2-(trifluoromethyl)-4H-pyrido[1,2-a]pyrimidin-4-one]",> 67000
4,"CCc1ccn2c(=O)c(-c3ccc(OCC(F)(F)F)cc3)c(C(F)(F)F)nc2c1 [Example 2-1, 8-Ethyl-3-(4-(2,2,2-trifluoroethoxy)phenyl)-2-(trifluoromethyl)-4H-pyrido[1,2-a]pyrimidin-4-one]",22.6
5,"O=c1c(-c2cnn(CC(F)(F)C(F)(F)F)c2)c(C(F)(F)F)nc2cnccn12 [Example 39-25, 3-[1-(2,2,3,3,3-pentafluoropropyl)-1H-pyrazol-4-yl]-2-(trifluoromethyl)-4H-pyrazino[1,2-a]pyrimidin-4-one]",3.7
6,"O=c1c(-c2cnn(CC(F)(F)C(F)(F)F)c2)c(C(F)(F)F)nc2cc(N3CCC3)ccn12 [Example 1-88, 8-(1-azetidinyl)-3-(1-(2,2,3,3,3-pentafluoropropyl)-1H-pyrazol-4-yl)-2-(trifluoromethyl)-4H-pyrido[1,2-a]pyrimidin-4-one]",2350
7,"O=c1c(-c2cnn(CC(F)(F)C(F)(F)F)c2)c(C(F)(F)F)nc2cc(OCF)cnn12 [Example 47, 8-(Fluoromethoxy)-3-[1-(2,2,3,3,3-pentafluoropropyl)-1H-pyrazol-4-yl]-2-(trifluoromethyl)-4H-pyrimido[1,2-b]pyridazin-4-one]",33.5
8,"CC(=O)Nc1ccn2c(=O)c(-c3ccc(OCC(F)(F)F)cc3)c(C(F)(F)F)nc2c1 [Example 1-31, N-(4-oxo-3-(4-(2,2,2-trifluoroethoxy)phenyl)-2-(trifluoromethyl)-4H-pyrido[1,2-a]pyrimidin-8-yl)acetamide]",1720
9,"Cc1cnc2nc(C(F)(F)F)c(-c3cnn(CC(F)(F)C(F)(F)F)c3)c(=O)n2c1 [Example 40-2, 7-methyl-3-[1-(2,2,3,3,3-pentafluoropropyl)-1H-pyrazol-4-yl]-2-(trifluoromethyl)-4H-[1,3]diazino[1,2-a]pyrimidin-4-one]",51.8
10,"COc1ccc2nc(C(F)(F)F)c(-c3cnc(OCC(F)(F)F)nc3)c(=O)n2n1 [Example 39-15, 7-methoxy-3-[2-(2,2,2-trifluoroethoxy)pyrimidin-5-yl]-2-(trifluoromethyl)-4H-pyrimido[1,2-b]pyridazin-4-one]",> 67000
11,"COc1ccn2c(=O)c(-c3nc(OCC(F)(F)F)cs3)c(C(F)(F)F)nc2c1 [Example 51, 8-Methoxy-3-[4-(2,2,2-trifluoroethoxy)-1,3-thiazol-2-yl]-2-(trifluoromethyl)-4H-pyrido[1,2-a]pyrimidin-4-one]",2980
12,"COc1ccn2c(=O)c(-c3cnn(-c4ccc(C(F)(F)F)cc4)c3)c(C(F)(F)F)nc2c1 [Example 1-71, 8-methoxy-2-(trifluoromethyl)-3-(1-(4-(trifluoromethyl)phenyl)-1H-pyrazol-4-yl)-4H-pyrido[1,2-a]pyrimidin-4-one]",4880
13,"COc1ccn2c(=O)c(-c3ccn(-c4ccccc4)n3)c(C(F)(F)F)nc2c1 [Example 1-3, 8-methoxy-3-(1-phenyl-1H-pyrazol-3-yl)-2-(trifluoromethyl)-4H-pyrido[1,2-a]pyrimidin-4-one]",371
14,"COc1ccn2c(=O)c(-c3ccc(OCC(F)(F)F)cc3C(F)(F)F)c(C(F)(F)F)nc2c1 [Example 8-2, 8-methoxy-3-(4-(2,2,2-trifluoroethoxy)-2-(trifluoromethyl)phenyl)-2-(trifluoromethyl)-4H-pyrido[1,2-a]pyrimidin-4-one]",605
15,"[2H]C([2H])([2H])Oc1ccn2c(=O)c(-c3cnn(CCC(F)(F)F)c3)c(C(F)(F)F)nc2c1 [Example 1-61, 8-(methyloxy-d3)-2-(trifluoromethyl)-3-(1-(3,3,3-trifluoropropyl)-1H-pyrazol-4-yl)-4H-pyrido[1,2-a]pyrimidin-4-one]",11.4
16,"CSCOc1ccn2c(=O)c(-c3ccc(OCC(F)(F)F)cc3)c(C(F)(F)F)nc2c1 [Example 17-1, 8-((Methylsulfanyl)methoxy)-3-(4-(2,2,2-trifluoroethoxy)phenyl)-2-(trifluoromethyl)-4H-pyrido[1,2-a]pyrimidin-4-one]",317
